Measured values taken from ChEMBL document CHEMBL1201862, “PubChem BioAssay data set” (2004).
The source made the active and inactive calls.

Legend:
[1] = system: BJ; assay: BJ-TERT fibroblast viability loss – cell-based, RAS-independent, luminescence, dose response (AID 1933); assay type: functional; settings: Homo sapiens
[2] = system: BJ; assay: cells; assay type: functional, cell-based; settings: Homo sapiens
[3] = system: BJ; assay: BJ-TERT-LT-ST fibroblast viability loss – cell-based, RAS-independent, luminescence, dose response (AID 1935); assay type: functional; settings: Homo sapiens;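 also: BJ fibroblasts immortalized with TERT plus LT and ST oncogenes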
[4] = DRD fibroblast viability loss – cell-based, non-viral oncogenic, luminescence, dose response (AID 1934); assay type: functional; settings: Homo sapiens
[5] = target: Latent membrane protein 1 (Human herpesvirus 4 (strain B95-8), UniProt P03230); assay: LMP1 TES1 pathway selectivity over dsRED control – imaging, HEK293T, dual-color eGFP/dsRED, cherry-picks, selectivity assay for LMP1 NF-kB inhibitor project, dose response (AID 588398); assay type: functional, cell-based
[6] = target: Cysteine protease ATG4B (Homo sapiens, UniProt Q9Y4P1); assay type: functional;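 also: Fluorescence-based dose-response confirmation assay measuring inhibition of ATG4B activity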
[7] = target: Phospholipase A2 (Homo sapiens, UniProt P04054); assay type: functional;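 also: confirmatory dose-response counterscreen on phospholipase A2, testing hits that came from an ultra-high-throughput screen for ATG4B inhibitors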
[8] = system: HEK293; assay: inhibition of NOD1-driven NF-kB reporter – cell-based, luminescence, uHTS, primary screen (AID 1578); assay type: functional; settings: Homo sapiens
[9] = system: HEK293; assay: cells; assay type: functional, cell-based; settings: Homo sapiens
[10] = system: HEK293; assay: cells; assay type: functional, cell-based; settings: Homo sapiens; remark: listed apart in the source
[11] = Luminescence-based counterscreen assay for KLF5 inhibitors: dose response cell-based high throughput screening assay to identify cytotoxic compounds using the IEC-6 intestinal epithelial cell line. [Related pubchem assays: 1700 (Primary screen.), 1834 (Confirmation screen.), 1858 (Summary AID.), 1905 (Counterscreen.)]; assay type: functional
[12] = target: Nucleotide-binding oligomerization domain-containing protein 2 (Homo sapiens, UniProt Q9HC29); assay: inhibition of NOD2-driven NF-kB reporter – cell-based, luminescence, uHTS, HEK293 (AID 1566); assay type: functional
[13] = system: HEK293; assay: NOD2 signaling inhibitors in MDP-stimulated cells, cell-based, uHTS, luminescence (AID 2001); assay type: functional; settings: Homo sapiens
[14] = system: HEK293; assay: cells; assay type: functional, cell-based; settings: Homo sapiens; remark: listed apart in the source
[15] = target: Tumor necrosis factor (Homo sapiens, UniProt P01375); assay: analog potency on TNFa NF-kB signaling – cell-based, revised, SAR follow-up (AID 2337); assay type: functional
[16] = target: T1, Nucleotide-binding oligomerization domain-containing protein 1 (Homo sapiens, UniProt Q9Y239); assay: blockers of NOD1 pathway activity – revised, SAR follow-up (AID 2333); assay type: functional
T1 sequence (Q9Y239 whole entry): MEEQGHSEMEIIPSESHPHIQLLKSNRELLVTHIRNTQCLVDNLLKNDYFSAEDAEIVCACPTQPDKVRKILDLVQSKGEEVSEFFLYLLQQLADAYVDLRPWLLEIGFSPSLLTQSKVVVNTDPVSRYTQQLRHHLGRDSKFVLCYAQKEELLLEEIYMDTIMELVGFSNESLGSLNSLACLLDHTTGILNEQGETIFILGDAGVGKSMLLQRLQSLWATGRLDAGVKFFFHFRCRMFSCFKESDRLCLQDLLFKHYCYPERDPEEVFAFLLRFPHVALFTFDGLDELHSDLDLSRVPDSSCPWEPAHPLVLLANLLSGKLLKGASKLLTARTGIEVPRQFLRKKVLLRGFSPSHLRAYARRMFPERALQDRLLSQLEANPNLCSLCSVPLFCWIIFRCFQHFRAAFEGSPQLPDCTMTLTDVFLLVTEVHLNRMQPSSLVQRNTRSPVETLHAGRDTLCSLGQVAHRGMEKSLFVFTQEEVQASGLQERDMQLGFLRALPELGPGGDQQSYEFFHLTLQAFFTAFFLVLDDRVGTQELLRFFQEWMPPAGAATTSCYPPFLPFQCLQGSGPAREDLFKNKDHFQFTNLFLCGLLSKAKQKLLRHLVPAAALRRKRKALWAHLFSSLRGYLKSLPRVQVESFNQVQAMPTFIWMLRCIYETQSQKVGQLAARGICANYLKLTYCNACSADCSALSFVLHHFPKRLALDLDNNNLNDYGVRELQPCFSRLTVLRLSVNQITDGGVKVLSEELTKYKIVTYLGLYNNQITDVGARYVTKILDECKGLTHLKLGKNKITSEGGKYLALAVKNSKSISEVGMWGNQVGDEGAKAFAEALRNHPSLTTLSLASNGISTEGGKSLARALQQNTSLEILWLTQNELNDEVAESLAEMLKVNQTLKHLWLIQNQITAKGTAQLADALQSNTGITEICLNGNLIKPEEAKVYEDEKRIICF

[17] = HEK-293T viability loss after treatment – luminescence, T-cell screen hits, cytotoxicity control for TCR NF-kB inhibitor project, dose response (AID 489026); assay type: functional, cell-based;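 also: cells exposed to compound about 14 hours before the viability readout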
[18] = system: H4; assay: inhibitors of control reporter signal in H4 cells – cell-based, plate reader, dry powder samples, counter-screen for prion reporter project, dose response (AID 540255); assay type: functional; settings: Homo sapiens
[19] = system: H4; assay: Inhibitors of Prion Protein 5' UTR mRNA Measured in Cell-Based System Using Plate Reader - 2078-01_Inhibitor_Dose_DryPowder_Activity. [Related pubchem assays (depositor defined):AID488894]; assay type: functional; settings: Homo sapiens
[20] = system: HEK293; assay: cells; settings: Homo sapiens
[21] = target: Eukaryotic translation initiation factor 4H (Homo sapiens, UniProt Q15056); assay: eIF4H binding inhibition – biochemical, uHTS, fluorescence polarization, translation initiation inhibitor project, primary screen (AID 2012)
[22] = target: Induced myeloid leukemia cell differentiation protein Mcl-1 (Homo sapiens, UniProt Q07820); assay type: functional
[23] = target: Polyadenylate-binding protein 1 (Homo sapiens, UniProt P11940); assay: blockers of PABP interaction with poly(A) – biochemical, fluorescence polarization, […] (AID 2014)
[24] = target: Beta-adrenergic receptor kinase 1 (Homo sapiens, UniProt P25098); assay: aptamer displacement from bead-bound GRK2 – biochemical, cherry pick 1, bead flow cytometry, dose response (AID 504500)
[25] = target: T2, Apoptotic protease-activating factor 1 (Homo sapiens, UniProt O14727); assay: activation of Apaf-1 mediated apoptosis – fluorescent, uHTS hits, dose response (AID 588554); assay type: functional
T2 sequence (O14727 whole entry): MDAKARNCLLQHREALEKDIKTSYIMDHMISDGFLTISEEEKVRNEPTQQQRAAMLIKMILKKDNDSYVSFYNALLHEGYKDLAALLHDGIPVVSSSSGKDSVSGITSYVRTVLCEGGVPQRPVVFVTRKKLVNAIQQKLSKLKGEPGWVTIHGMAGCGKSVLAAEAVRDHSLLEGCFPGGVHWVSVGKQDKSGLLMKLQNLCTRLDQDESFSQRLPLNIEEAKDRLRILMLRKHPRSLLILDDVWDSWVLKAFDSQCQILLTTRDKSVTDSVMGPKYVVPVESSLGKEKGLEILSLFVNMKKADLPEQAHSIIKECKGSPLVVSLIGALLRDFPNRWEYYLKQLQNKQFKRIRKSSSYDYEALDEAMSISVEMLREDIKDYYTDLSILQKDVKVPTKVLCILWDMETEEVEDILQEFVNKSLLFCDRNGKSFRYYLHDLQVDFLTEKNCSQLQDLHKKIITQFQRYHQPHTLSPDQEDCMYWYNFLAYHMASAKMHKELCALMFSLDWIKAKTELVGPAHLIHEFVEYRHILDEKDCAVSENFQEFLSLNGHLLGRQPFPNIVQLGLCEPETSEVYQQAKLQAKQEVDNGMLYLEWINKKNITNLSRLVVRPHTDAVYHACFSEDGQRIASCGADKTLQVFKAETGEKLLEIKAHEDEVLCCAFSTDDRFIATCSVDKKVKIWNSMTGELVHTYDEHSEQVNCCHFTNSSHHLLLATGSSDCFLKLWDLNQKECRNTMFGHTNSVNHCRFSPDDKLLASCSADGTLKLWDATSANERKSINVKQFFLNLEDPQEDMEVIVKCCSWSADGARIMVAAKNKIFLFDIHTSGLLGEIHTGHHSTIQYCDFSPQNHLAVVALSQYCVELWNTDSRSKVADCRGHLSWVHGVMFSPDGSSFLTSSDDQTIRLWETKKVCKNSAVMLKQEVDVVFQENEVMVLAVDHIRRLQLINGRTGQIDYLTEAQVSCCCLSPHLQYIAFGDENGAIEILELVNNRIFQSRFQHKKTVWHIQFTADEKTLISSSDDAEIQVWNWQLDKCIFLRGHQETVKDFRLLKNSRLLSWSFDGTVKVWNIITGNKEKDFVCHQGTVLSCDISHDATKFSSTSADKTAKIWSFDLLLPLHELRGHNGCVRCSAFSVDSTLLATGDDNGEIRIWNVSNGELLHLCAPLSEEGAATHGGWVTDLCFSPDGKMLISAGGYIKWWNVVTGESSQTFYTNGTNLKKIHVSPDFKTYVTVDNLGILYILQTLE

[26] = Mcl1-dependent cancer cell viability – HMC-1-8 cells, luminescence, dry powder, selectivity assay for A1 inhibitor project, dose response (AID 504415); assay type: functional, cell-based; settings: Homo sapiens
[27] = system: HEK293; assay: HEK293T cell viability loss, resazurin readout – resazurin fluorescence, cytotoxicity control for NF-kB activator project, SAR follow-up (AID 493251); assay type: functional, cell-based; settings: Homo sapiens
[28] = system: Jurkat; assay: SAR Analysis of small molecule inhibitors of T-cell specific antigen receptor-induced NF-kB activation in a Jurkat cell line using a luminescence assay. [Related pubchem assays (depositor defined):AID435003, AID435012, AID465]; assay type: functional, cell-based; settings: Homo sapiens
[29] = system: HEK293; assay: SAR Analysis of small molecule inhibitors of T-cell specific antigen receptor-induced NF-kB activation in a HEK-293T cell line using a luminescence assay. [Related pubchem assays (depositor defined):AID435003, AID435012, AID489026]; assay type: functional, cell-based; settings: Homo sapiens

Chain of Nucleotide-binding oligomerization domain-containing protein 2 (Q9HC29 whole entry, the tested form may be a part): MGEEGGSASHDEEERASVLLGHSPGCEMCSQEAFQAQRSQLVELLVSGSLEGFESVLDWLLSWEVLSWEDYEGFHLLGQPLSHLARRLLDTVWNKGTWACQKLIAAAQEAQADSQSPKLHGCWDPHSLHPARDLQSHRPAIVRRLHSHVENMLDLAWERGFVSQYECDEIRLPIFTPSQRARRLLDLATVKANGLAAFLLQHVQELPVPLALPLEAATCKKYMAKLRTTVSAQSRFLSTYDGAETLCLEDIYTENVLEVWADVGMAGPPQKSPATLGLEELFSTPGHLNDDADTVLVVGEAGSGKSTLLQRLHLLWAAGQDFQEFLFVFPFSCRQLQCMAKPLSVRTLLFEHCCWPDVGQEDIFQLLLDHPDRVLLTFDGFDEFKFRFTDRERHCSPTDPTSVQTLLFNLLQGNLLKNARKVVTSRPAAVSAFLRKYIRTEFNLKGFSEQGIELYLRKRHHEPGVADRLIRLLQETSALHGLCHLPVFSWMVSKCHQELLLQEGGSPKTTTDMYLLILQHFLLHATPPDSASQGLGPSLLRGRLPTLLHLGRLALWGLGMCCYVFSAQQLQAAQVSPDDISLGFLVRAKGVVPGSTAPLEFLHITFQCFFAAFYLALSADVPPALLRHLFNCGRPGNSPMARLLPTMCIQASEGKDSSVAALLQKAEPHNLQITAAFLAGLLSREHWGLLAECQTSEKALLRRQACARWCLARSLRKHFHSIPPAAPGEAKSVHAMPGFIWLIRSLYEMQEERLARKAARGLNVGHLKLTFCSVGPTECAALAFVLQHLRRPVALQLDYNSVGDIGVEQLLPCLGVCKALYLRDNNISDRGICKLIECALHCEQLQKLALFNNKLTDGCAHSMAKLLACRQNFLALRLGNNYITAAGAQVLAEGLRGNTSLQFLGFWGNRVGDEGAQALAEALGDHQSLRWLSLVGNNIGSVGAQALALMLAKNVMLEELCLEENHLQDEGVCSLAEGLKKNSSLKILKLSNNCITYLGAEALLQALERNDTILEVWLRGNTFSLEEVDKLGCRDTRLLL
Chain of Cysteine protease ATG4B (Q9Y4P1 whole entry): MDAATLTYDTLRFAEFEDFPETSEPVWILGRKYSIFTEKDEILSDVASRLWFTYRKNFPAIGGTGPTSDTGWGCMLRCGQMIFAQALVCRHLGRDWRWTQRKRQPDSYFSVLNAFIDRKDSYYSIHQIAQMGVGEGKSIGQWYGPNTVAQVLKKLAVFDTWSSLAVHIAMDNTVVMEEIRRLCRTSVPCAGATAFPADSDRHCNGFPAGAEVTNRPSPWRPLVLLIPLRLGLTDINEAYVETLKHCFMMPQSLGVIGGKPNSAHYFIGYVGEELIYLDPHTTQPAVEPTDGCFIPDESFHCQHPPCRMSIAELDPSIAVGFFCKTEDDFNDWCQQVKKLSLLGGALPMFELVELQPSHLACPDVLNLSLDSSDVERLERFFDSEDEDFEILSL
Chain of Beta-adrenergic receptor kinase 1 (P25098 whole entry): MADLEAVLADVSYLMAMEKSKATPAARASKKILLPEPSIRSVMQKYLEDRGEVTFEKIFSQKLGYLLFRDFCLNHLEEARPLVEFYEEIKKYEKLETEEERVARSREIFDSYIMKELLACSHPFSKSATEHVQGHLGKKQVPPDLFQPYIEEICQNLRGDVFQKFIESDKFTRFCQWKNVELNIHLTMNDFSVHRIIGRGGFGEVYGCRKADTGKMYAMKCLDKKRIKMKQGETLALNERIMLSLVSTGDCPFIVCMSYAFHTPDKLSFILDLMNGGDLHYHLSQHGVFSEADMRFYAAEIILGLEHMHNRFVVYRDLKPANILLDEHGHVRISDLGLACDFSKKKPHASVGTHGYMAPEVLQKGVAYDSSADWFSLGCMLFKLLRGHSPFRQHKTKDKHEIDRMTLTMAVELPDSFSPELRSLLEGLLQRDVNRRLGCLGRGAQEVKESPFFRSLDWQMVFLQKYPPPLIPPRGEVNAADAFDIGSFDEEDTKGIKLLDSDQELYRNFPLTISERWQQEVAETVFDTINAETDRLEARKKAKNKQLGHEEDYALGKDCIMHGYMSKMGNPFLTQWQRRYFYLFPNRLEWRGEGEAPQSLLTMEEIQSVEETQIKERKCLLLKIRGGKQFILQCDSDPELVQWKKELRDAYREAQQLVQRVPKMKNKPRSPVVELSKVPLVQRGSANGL
Chain of Polyadenylate-binding protein 1 (P11940 whole entry): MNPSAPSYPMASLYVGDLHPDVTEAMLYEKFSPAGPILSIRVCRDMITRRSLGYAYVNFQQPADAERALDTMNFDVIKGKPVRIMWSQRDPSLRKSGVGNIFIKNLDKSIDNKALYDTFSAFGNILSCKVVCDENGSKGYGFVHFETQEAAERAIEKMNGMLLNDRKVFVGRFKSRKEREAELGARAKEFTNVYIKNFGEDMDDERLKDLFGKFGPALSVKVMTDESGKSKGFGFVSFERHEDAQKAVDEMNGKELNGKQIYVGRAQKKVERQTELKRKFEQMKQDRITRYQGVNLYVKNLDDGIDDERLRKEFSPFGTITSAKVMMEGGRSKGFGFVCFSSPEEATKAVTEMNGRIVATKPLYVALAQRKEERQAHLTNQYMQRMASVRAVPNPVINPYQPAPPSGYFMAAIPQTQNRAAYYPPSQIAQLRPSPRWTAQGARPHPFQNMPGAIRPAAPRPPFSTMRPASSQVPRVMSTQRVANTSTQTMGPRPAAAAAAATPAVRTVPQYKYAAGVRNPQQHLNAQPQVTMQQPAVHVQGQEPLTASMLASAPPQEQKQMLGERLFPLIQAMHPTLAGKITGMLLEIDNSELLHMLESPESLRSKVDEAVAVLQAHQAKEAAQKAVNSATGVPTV
Chain of Induced myeloid leukemia cell differentiation protein Mcl-1 (Q07820 whole entry): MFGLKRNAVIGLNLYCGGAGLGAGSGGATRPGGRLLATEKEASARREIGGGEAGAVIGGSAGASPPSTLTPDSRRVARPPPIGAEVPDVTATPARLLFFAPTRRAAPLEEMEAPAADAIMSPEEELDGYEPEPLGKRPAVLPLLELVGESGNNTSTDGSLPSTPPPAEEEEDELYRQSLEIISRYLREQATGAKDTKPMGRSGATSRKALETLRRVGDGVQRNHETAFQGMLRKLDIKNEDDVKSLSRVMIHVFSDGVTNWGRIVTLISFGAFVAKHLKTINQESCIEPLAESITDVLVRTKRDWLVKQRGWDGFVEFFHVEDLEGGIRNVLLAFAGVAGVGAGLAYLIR
Chain of Latent membrane protein 1 (P03230 whole entry): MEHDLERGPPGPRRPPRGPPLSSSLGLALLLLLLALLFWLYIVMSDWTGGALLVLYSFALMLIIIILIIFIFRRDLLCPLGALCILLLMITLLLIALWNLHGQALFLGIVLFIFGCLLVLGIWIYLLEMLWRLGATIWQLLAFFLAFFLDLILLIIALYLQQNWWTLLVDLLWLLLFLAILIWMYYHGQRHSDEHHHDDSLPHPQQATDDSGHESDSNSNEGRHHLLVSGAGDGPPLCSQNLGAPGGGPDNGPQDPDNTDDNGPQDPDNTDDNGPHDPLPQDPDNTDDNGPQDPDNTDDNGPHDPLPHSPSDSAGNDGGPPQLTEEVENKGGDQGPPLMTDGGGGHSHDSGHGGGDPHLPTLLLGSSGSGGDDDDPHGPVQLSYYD
Chain of Phospholipase A2 (P04054 whole entry): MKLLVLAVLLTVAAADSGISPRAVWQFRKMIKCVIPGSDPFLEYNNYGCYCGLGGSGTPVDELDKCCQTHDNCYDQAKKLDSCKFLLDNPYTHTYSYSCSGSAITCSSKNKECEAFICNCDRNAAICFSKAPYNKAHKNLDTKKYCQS
Chain of Tumor necrosis factor (P01375 whole entry, the tested form may be a part): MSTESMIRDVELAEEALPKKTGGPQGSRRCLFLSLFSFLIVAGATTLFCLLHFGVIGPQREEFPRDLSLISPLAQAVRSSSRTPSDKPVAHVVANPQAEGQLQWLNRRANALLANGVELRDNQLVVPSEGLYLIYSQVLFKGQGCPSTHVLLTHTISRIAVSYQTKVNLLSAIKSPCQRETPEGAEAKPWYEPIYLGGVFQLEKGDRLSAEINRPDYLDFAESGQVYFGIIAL

## CCOc1ccc(C(C)=O)cc1COc1cccnc1[N+](=O)[O-]
[1]
  EC50: 23.1 µM (active)
[2]
  EC50: 32.2 µM (active)
[3]
  EC50: > 150 µM (inconclusive)
[4]
  EC50: 21.9 µM (active)
[5]
  AC50: 80.9 µM (active)

## CC(C)c1ccc(NC2CCCN(C(=O)c3cc(C(C)C)n[nH]3)C2)cc1 (centres undefined)
[6]
  IC50: 16.8 µM (active)
[7]
  IC50: 12.2 µM (active)

## CC(C)(C)c1ccc(C(=O)O/N=C(\N)c2ccccn2)cc1
[8]
  EC50: 2.73 µM (active)
[9]
  IC50: < 0.312 µM (active)
[10]
  IC50: > 20 µM (inactive)
[11]
  IC50: 23.1 µM (not active)
[12]
  EC50: 0.04 µM (active)
[13]
  IC50: 3.04 µM (active)
[14]
  IC50: > 20 µM (inactive)
[15]
  IC50: 0.952 µM (active)
[16]
  IC50: 2 µM (active)
[17]
  IC50: > 80 µM (inactive)
[18]
  AC50: 0.034 µM (active)
[19]
  AC50: 0.032 µM (active)
[20]
  IC50: > 20 µM (inactive)

## C=C(C)C(=O)Nc1cccc(C2=NOC3(C2)C[C@@H](C(N)=O)N(C(=O)c2ccc(Cl)cc2)C3)c1 (some centres undefined)
[21]
  IC50: 0.7 µM (active)
[22]
  IC50: 1.54 µM (active)
[23]
  IC50: 9.01 µM (active)
[24]
  EC50: 0.73 µM (active)
[25]
  EC50: 2.35 µM (active)

## O=c1oc2ccccc2c(Sc2ccccc2)c1[N+](=O)[O-]
[26]
  AC50: 56.1 µM (active)

## COc1ccc(C(NC(C)=O)c2ccc3cccnc3c2O)cc1 (centres undefined)
[27]
  IC50: 16.5 µM (active)
[28]
  IC50: 4.23 µM (active)
[29]
  IC50: 6.35 µM (active)
